This note sets out measurements from patent US20060235062A1, “Novel heterocyclic analogs of diphenylethylene compounds” (THERACOS, INC., priority 2002, published 2006).

One assay concerns IkappaB. Put plainly: LPS-stimulated phosphorylation of IkappaB in RAW 264.7 cells. The note with it: RAW 264.7 cells, 3, 10 or 30, LPS plus IFN-gamma, anti-phospho-IkappaB blot. The class given is cell-based.
Another assay relates to IL-1-beta. The experiment in a line: LPS-induced IL-1-beta production in RAW cells (ELISA). The class given is cell-based. The note with it: RAW cells, 0.1, 1, 10, 50 or 100 pM, FIG. 11.
Another assay concerns AIA rats. The experiment in a line: Cancellous bone loss in adjuvant induced arthritic (AIA) rats, MicroCT of right proximal tibia. The class given is in vivo, male Lewis rats.
The next assay relates to SJL-/J mice. Put plainly: Experimental allergic encephalomyelitis (EAE) in mice. The note with it: 200 μg once daily subcutaneous, FIG. 14. It is filed as in vivo.

Take `COC(=O)C(=Cc1cc(OC)cc(OC)c1)c1ccc(Oc2ccc(CC3SC(=O)NC3=O)cc2)cc1` (stereo not drawn) [Compound 11, 3-(3,5-Dimethoxyphenyl)-2-{4-[4-(2,4-dioxothiazolidin-5-ylmethyl)-phenoxy]-phenyl}-acrylic acid methyl ester]: in the assay with IkappaB, the “inhibition of the phosphorylation of IkappaB” value was “dose-dependent inhibition”. Further, the “inhibition of LPS-induced IL-1-beta production” value with IL-1-beta is “inhibited IL-1-beta better than rosiglitazone”. In addition, the “less cancellous bone lost” value in the assay with AIA rats (AIA rats, treated vs vehicle) was ~50%. In addition, in the assay on AIA rats (right proximal tibia), the C.Th stood at 186 ± 25 μm, the “Conn. Dens” value is on record as 38.3 ± 19.7 l/mm3, the “SMI (0-3)” value was determined as 2.8 ± 0.3 and the Tb.N was 2.6 ± 0.5 l/mm. Also, in the assay on AIA rats (right proximal tibia, compound 11 50 mg/kg oral, etanercept 1.67 mg/kg i.p., once daily), the BV/TV is reported as 13.7 ± 4.7%. Besides, in the assay with SJL-/J mice, the “amelioration of EAE (clinical score)” value is reported as “highly effective”.
